Experimental data: ChEMBL document CHEMBL3045312, “Projuvenoids: synthesis and biological evaluation of sulfenylated, sulfinylated, and sulfonylated carbamates” (Arch Insect Biochem Physiol, 1996)
The source made the active and inactive calls. The rule behind the calls is not given here.

Tests used:
Pieris brassicae [1] = assay: Juvenile hormone mimicking activity against fifth-instar larval stage of Pieris brassicae reared on cabbage plants assessed as morphogenetic changes measured per larvae applied topically to dorsal surface of larvae measured post pupal ecdysis; type: functional
Sitophilus oryzae [2] = assay: Juvenile hormone mimicking activity against adult Sitophilus oryzae (rice weevil) infested wheat kernels assessed as suppression of progeny development at 1 ppm applied through diet for 21 days measured after 9 weeks; type: functional, organism-based
Pieris brassicae [3] = assay: Ratio of fenoxycarb ID50 to compound ID50 for fifth-instar larval stage of Pieris brassicae; type: functional
Bemisia tabaci [4] = assay: Juvenile hormone mimicking activity against Bemisia tabaci (sweet potato whitefly) infested cotton assessed as suppression of adult emergence at 50 g/ha applied as emulsifiable concentrate through spray measured on day 12 under field conditions (reference value: 89%); type: functional
Bemisia tabaci [5] = assay: Juvenile hormone mimicking activity against Bemisia tabaci (sweet potato whitefly) infested cotton assessed as suppression of nymph emergence at 50 g/ha applied as emulsifiable concentrate through spray measured on day 12 under field conditions (reference value: 92%); type: functional
Bemisia tabaci [6] = assay: Juvenile hormone mimicking activity against Bemisia tabaci (sweet potato whitefly) infested cotton assessed as suppression of adult emergence at 100 g/ha applied as emulsifiable concentrate through spray measured on day 12 under field conditions (reference value: 89%); type: functional
Bemisia tabaci [7] = assay: Juvenile hormone mimicking activity against Bemisia tabaci (sweet potato whitefly) infested cotton assessed as suppression of nymph emergence at 200 g/ha applied as emulsifiable concentrate through spray measured on day 12 under field conditions (reference value: 92%); type: functional
Bemisia tabaci [8] = assay: Juvenile hormone mimicking activity against Bemisia tabaci (sweet potato whitefly) infested cotton assessed as suppression of nymph emergence at 100 g/ha applied as emulsifiable concentrate through spray measured on day 12 under field conditions (reference value: 92%); type: functional
Bemisia tabaci [9] = assay: Juvenile hormone mimicking activity against Bemisia tabaci (sweet potato whitefly) infested cotton assessed as suppression of adult emergence at 200 g/ha applied as emulsifiable concentrate through spray measured on day 12 under field conditions (reference value: 89%); type: functional
[10] = Lipophilicity, log P of the compound; type: physicochemical; conditions: octanol/water
Sitophilus oryzae [11] = assay: Juvenile hormone mimicking activity against adult Sitophilus oryzae (rice weevil) infested wheat kernels assessed as suppression of progeny development at 1 to 100 ppm applied through diet for 21 days measured after 9 weeks; type: functional, organism-based
Bemisia tabaci [12] = assay: Juvenile hormone mimicking activity against Bemisia tabaci (sweet potato whitefly) infested cotton assessed as suppression of nymph emergence at 200 g/ha applied as wettable powder through spray measured on day 12 under field conditions (reference value: 92%); type: functional
Bemisia tabaci [13] = assay: Juvenile hormone mimicking activity against Bemisia tabaci (sweet potato whitefly) infested cotton assessed as suppression of nymph emergence at 400 g/ha applied as wettable powder through spray measured on day 12 under field conditions (reference value: 92%); type: functional
Bemisia tabaci [14] = assay: Juvenile hormone mimicking activity against Bemisia tabaci (sweet potato whitefly) infested cotton assessed as suppression of nymph emergence at 100 g/ha applied as wettable powder through spray measured on day 12 under field conditions (reference value: 92%); type: functional
Bemisia tabaci [15] = assay: Juvenile hormone mimicking activity against Bemisia tabaci (sweet potato whitefly) infested cotton assessed as suppression of adult emergence at 400 g/ha applied as wettable powder through spray measured on day 12 under field conditions (reference value: 89%); type: functional
Bemisia tabaci [16] = assay: Juvenile hormone mimicking activity against Bemisia tabaci (sweet potato whitefly) infested cotton assessed as suppression of adult emergence at 100 g/ha applied as wettable powder through spray measured on day 12 under field conditions (reference value: 89%); type: functional
Bemisia tabaci [17] = assay: Juvenile hormone mimicking activity against Bemisia tabaci (sweet potato whitefly) infested cotton assessed as suppression of adult emergence at 200 g/ha applied as wettable powder through spray measured on day 12 under field conditions (reference value: 89%); type: functional

Row | Structure (SMILES) | ID50 (Pieris brassicae [1]) [ng] | Activity (Sitophilus oryzae [2]) | also measured
1 | CCCCCCCCCCCCOC(=O)N(CCCC)SN(CCOc1ccc(Oc2ccccc2)cc1)C(=O)OCC | 2.8 | Active | Ratio (Pieris brassicae [3]): 6
2 | CCOC(=O)NCCOc1ccc(Oc2ccc(Cl)cc2)cc1 | 22 |  | 
3 | CCCCCCCCCCCCCCCCCN(SN(CCOc1ccc(Oc2ccccc2)cc1)C(=O)OCC)C(=O)OCc1ccccc1 | 6.4 | Active | 
4 | CCOC(=O)N(CCOc1ccc(Oc2ccccc2)cc1)S(=O)(=O)N(CCOc1ccc(Oc2ccccc2)cc1)C(=O)OCC | >100 |  | 
5 | CC(C)OC(=O)NCCOc1ccc(Oc2ccccc2)cc1 | 24 |  | 
6 | CCOC(=O)N(CCOc1ccc(Oc2ccccc2)cc1)SN(CCOc1ccc(Oc2ccccc2)cc1)C(=O)OCC | 2.8 | Active | 
7 | CCOC(=O)N(CCOc1ccc(Oc2ccc(Cl)cc2)cc1)[S+]([O-])N(CCOc1ccc(Oc2ccc(Cl)cc2)cc1)C(=O)OCC | 9 |  | 
8 | CC(C)OC(=O)N(CCOc1ccc(Oc2ccccc2)cc1)[S+]([O-])N(CCOc1ccc(Oc2ccccc2)cc1)C(=O)OC(C)C | 20 |  | 
9 | CCOC(=O)N(CCOc1ccc(Oc2ccccc2)cc1)[S+]([O-])N(CCOc1ccc(Oc2ccccc2)cc1)C(=O)OCC | 2.2 | Active | Activity (Bemisia tabaci [4]): 36%; Activity (Bemisia tabaci [5]): 47%; Activity (Bemisia tabaci [6]): 31%; Activity (Bemisia tabaci [7]): 16%; Activity (Bemisia tabaci [8]): 33%; Activity (Bemisia tabaci [9]): 19%
10 | COC(C)(C)CCC[C@H](C)C/C=C/C(C)=C/C(=O)OC(C)C [METHOPRENE] | 60 |  | logP [10]: 5.21; Activity (Sitophilus oryzae [11]): Active
11 | CCOC(=O)NCCOc1ccc(Oc2ccccc2)cc1 [PHENOXYCARB] | 21 | Active | Activity (Bemisia tabaci [12]): 34%; Activity (Bemisia tabaci [13]): 21%; logP [10]: 4.07; Activity (Bemisia tabaci [14]): 41%; Activity (Bemisia tabaci [15]): 20%; Activity (Bemisia tabaci [16]): 43%; Activity (Bemisia tabaci [17]): 29%
12 | CCOC(=O)CC(SP(=S)(OC)OC)C(=O)OCC (configuration not stated) |  |  | Activity (Sitophilus oryzae [11]): Active
13 | CCCCCCCCOC(=O)N(C)SN(CCOc1ccc(Oc2ccccc2)cc1)C(=O)OCC | 3.4 |  | Ratio (Pieris brassicae [3]): 6
14 | CCOC(=O)N(CCOc1ccc(Oc2ccc(Cl)cc2)cc1)SN(CCOc1ccc(Oc2ccc(Cl)cc2)cc1)C(=O)OCC | 26 |  | 
15 | CC(C)OC(=O)N(CCOc1ccc(Oc2ccccc2)cc1)SN(CCOc1ccc(Oc2ccccc2)cc1)C(=O)OC(C)C | 22 |  | 
